This is an account of results in patent US9334267B2, “RAF inhibitor compounds” (Deciphera Pharmaceuticals, LLC, priority 2012, dated 2016).

Molecules are shown by their SMILES.

One data set has as its target T1, human B-Raf V600E (Homo sapiens, UniProt P15056, V600E).
T1 construct: B-RafV600E (residues 433-726 containing V600E mutation) containing an N-terminal purification tag is expressed and purified; made in house
The data set can be described thus: Enzymatic assay of B-Raf V600E kinase activity (Raf/MEK1 ATPase, coupled PK/LDH, A340). The conditions noted are these: read-out: Enzyme IC50, nM B-Raf V600E. The format is biochemical. The method, then:
Test compounds are evaluated for their inhibitory activities against one or more of human wild type B-Raf, human wild type C-Raf, human B-Raf V600E, human B-Raf V600E+T529I or human B-Raf V600E+G468A. T529I is a threonine to isoleucine B-Raf gatekeeper mutation and G468A is a B-Raf secondary mutation at G1403C in exon 11. The enzymatic assays of B-Raf, C-Raf and B-Raf mutations evaluate a property of Raf and MEK1 complex, which in the presence of ATP, catalyzes an enhanced ATP hydrolysis (Rominger, et al, Arch. Biochem. Biophys. 2007, 464: 130-137; US Patent Publication No. 2006/0211073). The ADP formed is monitored by the well-known coupled PK/LDH (pyruvate kinase/lactate dehydrogenase) system in the form of NADH oxidation, which can be monitored and detected spectrophotometrically by absorbance at 340 nm (A340; for principal of the method see Schindler et al, Science, 2000, 289: 1938-1942). Raf activated MEK1 ATPase activity is a property shared by all forms of Raf proteins.
B-RafV600E (residues 433-726 containing V600E mutation) containing an N-terminal purification tag is expressed and purified essentially as described previously (Wan et al, Cell, 2004, 116, 855-867).
Test compounds are evaluated for their inhibitory activities against one or more of wild type B-Raf, wild type C-Raf, B-Raf V600E, B-Raf V600E+T529I and B-Raf V600E+G468A. T529I is a B-Raf gatekeeper mutation and G468A is a B-Raf secondary mutation. The enzymatic assays of B-Raf, C-Raf and B-Raf mutations evaluate a property of Raf and MEK1 complex, which in the presence of ATP, catalyzes an enhanced ATP hydrolysis (Rominger, et al, Arch. Biochem. Biophys. 2007, 464: 130-137). The ADP formed is monitored by the well-known coupled PK/LDH (pyruvate kinase/lactate dehydrogenase) system in the form of NADH oxidation, which can be monitored and detected by absorbance at 340 nm (A340; for principal of the method see Schindler et al, Science, 2000, 289: 1938-1942). Raf activated MEK1 ATPase activity is a property shared by all forms of Raf proteins. In the B-Raf wild type enzymatic assay, the reaction mixture contains 1.2 nM B-Raf, 30 nM MEK1, 1000 uM ATP, 3.5 units (per 100 ul) of PK, 5 units (per 100 ul) of LDH, 1 mM phosphoenol pyruvate (PEP), and 280 uM of NADH. In the C-Raf assay, the reaction mixture contains 0.6 nM C-Raf, 26 nM MEK1, 2000 uM ATP, and the same amount of PK, LDH, PEP and NADH as above. In the B-Raf V600E assay, the reaction mixture contains […] B-Raf V600E, 26 nM MEK1, 200 uM ATP and the same amount of PK, LDH, PEP and NADH as above. In the B-RafV600E+T529I assay, the reaction mixture contains 6.2 nM B-Raf V600E+T529I, 30 nM MEK1, 200 uM ATP and the same amount of PK, LDH, PEP and NADH as above. In the B-Raf V600E+G468A assay, the reaction mixture contains 3.5 nM B-Raf, 30 nM MEK1, 200 uM ATP and the same amount of PK, LDH, PEP and NADH as above. All assays are started by mixing the above mixture with test compound and monitoring at A340 continuously for approximately 5 hr. […] In the aforementioned assays, the enzyme constructs can be screened prior to or after cleavage of the N-terminal purification tag.

Data set [1] concerns A375res cells.
For data set [2], the system named is A375res cells. The experiment in a line: Proliferation assay in vemurafenib-resistant melanoma cells A375res. The conditions noted are these: Homo sapiens, 72 h, read-out: absolute IC50 values.

T1 sequence (P15056 433-726 V600E): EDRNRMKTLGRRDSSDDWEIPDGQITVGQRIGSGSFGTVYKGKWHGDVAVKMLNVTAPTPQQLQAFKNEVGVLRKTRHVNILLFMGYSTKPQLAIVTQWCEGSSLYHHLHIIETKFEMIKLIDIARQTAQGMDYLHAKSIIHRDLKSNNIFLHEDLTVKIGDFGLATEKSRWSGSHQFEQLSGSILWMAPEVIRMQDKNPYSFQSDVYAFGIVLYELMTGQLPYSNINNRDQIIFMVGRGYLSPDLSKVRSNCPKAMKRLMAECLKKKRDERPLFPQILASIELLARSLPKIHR

The term IC50 denotes the point on the concentration scale where inhibition reaches its midpoint. Consider `CNc1ncc2cc(-c3cc(NC(=O)NCCC(C)(C)OC)c(F)cc3C)c(C)nc2n1` [Example 14, 1-(2-Fluoro-4-methyl-5-(7-methyl-2-(methylamino)pyrido[2,3-d]pyrimidin-6-yl)phenyl)-3-(3-methoxy-3-methylbutyl)urea], for which the IC50 at human B-Raf V600E is < 150 nM.
Still for that read-out and setting: next, `CNc1ncc2cc(-c3cc(NC(=O)NCC(O)C(C)(C)C)c(F)cc3F)c(C)nc2n1` (stereo not shown) [Example 11, 1-[2,4-Difluoro-5-(7-methyl-2-methylamino-pyrido[2,3-d]pyrimidin-6-yl)phenyl]-3-(2-hydroxy-3,3-dimethyl-butyl)urea]: < 150 nM.
Regarding `Cc1cc(F)c(NC(=O)NCCC(C)(C)C)cc1-c1cc2cnc(NCCN3CCOCC3)nc2nc1C` [Example 21, 1-(3,3-Dimethylbutyl)-3-(2-fluoro-4-methyl-5-(7-methyl-2-((2-morpholinoethyl)amino)pyrido[2,3-d]pyrimidin-6-yl)phenyl)ure], the IC50 on human B-Raf V600E is < 150 nM; in the data set with A375res cells [2], 15 to 1100 nM. In the data set with A375res cells [1], the “IC50 shift A375 to A375res” value was 0.6-1.9 fold.
Consider `Cc1cc(F)c(NC(=O)NCCC(C)(C)C)cc1-c1cc2cnc(N)nc2nc1C` [Example 20, 1-(5-(2-Amino-7-methylpyrido[2,3-d]pyrimidin-6-yl)-2-fluoro-4-methylphenyl)-3-(3,3-dimethylbutyl)urea], for which the IC50 is < 150 nM at human B-Raf V600E and 15 to 1100 nM in the data set on A375res cells [2]. Besides, in the data set with A375res cells [1], the “IC50 shift A375 to A375res” value is 0.6-1.9 fold.
As to `CNc1ncc2cc(-c3cc(NC(=O)NCCC(C)(C)C)c(F)cc3F)cnc2n1` [Example 36, 1-(2,4-Difluoro-5-(2-(methylamino)pyrido[2,3-d]pyrimidin-6-yl)phenyl)-3-(3,3-dimethylbutyl)urea methanesulfonate], on human B-Raf V600E, the IC50 was < 150 nM.
With `CNc1ncc2cc(-c3cc(NC(=O)NCC(O)C(C)(C)C)c(F)cc3C)cnc2n1` (stereo not shown) [Example 8, 1-[2-Fluoro-4-methyl-5-(2-methylaminopyrido[2,3-d]pyrimidin-6-yl)phenyl]-3-(2-hydroxy-3,3-dimethyl-butyl)urea], the IC50 at human B-Raf V600E is < 150 nM.
Still for that read-out and setting: the result for `CNc1ncc2cc(-c3cc(NC(=O)NCC4CC4(C)C)c(F)cc3C)cnc2n1` (stereo not shown) [Example 9] reads < 150 nM; that for `Cc1cc(F)c(NC(=O)NCCC2(C)CC2)cc1-c1cc2cnc(N)nc2nc1C` [Example 23, 1-(5-(2-Amino-7-methylpyrido[2,3-d]pyrimidin-6-yl)-2-fluoro-4-methylphenyl)-3-(2-(1-methylcyclopropyl)ethyl)urea], < 150 nM.
For `Cc1cc(F)c(NC(=O)NCC(O)C(C)(C)C)cc1-c1cc2cnc(N)nc2nc1C` (stereo not shown) [Example 10], on human B-Raf V600E, the IC50 was < 150 nM.
On the same count and under the same terms, next, `CNc1ncc2cc(-c3cc(NC(=O)NCCC(C)(C)C#N)c(F)cc3F)c(C)nc2n1` [Example 12, 1-(3-Cyano-3-methylbutyl)-3-(2,4-difluoro-5-(7-methyl-2-(methylamino)pyrido[2,3-d]pyrimidin-6-yl)phenyl)urea]: < 150 nM.
As for `CNc1ncc2cc(-c3cc(NC(=O)NCCC4(C(F)(F)F)CC4)c(F)cc3C)c(C)nc2n1` [Example 30, 1-(2-Fluoro-4-methyl-5-(7-methyl-2-(methylamino)pyrido[2,3-d]pyrimidin-6-yl)phenyl)-3-(2-(1-(trifluoromethyl)cyclopropyl)ethyl)urea], the IC50 at human B-Raf V600E was < 150 nM; in the data set with A375res cells [2] it was 15 to 1100 nM. The “IC50 shift A375 to A375res” value in the data set on A375res cells [1] is given as 0.6-1.9 fold.
For `Cc1cc(F)c(NC(=O)NCCC(C)(C)C)cc1-c1cc2cnc(NCCO)nc2nc1C` [Example 16, 1-(3,3-Dimethylbutyl)-3-[2-fluoro-5-[2-(2-hydroxyethylamino)-7-methyl-pyrido[2,3-d]pyrimidin-6-yl]-4-methyl-phenyl]urea], in that order: < 150 nM, 15 to 1100 nM and 0.6-1.9 fold.
Regarding `CNc1ncc2cc(-c3ccc(F)c(NC(=O)NCCC(C)(C)C#N)c3)c(C)nc2n1` [Example 13, 1-(3-Cyano-3-methylbutyl)-3-(2-fluoro-5-(7-methyl-2-(methylamino)pyrido[2,3-d]pyrimidin-6-yl)phenyl)urea], at human B-Raf V600E, the IC50 is < 150 nM.
Consider `CNc1ncc2cc(-c3cc(NC(=O)NCCC(C)(C)C#N)c(F)cc3C)c(C)nc2n1` [Example 3, 1-(3-Cyano-3-methylbutyl)-3-(2-fluoro-4-methyl-5-(7-methyl-2-(methylamino)pyrido[2,3-d]pyrimidin-6-yl)phenyl)urea], for which the IC50 on human B-Raf V600E was < 150 nM.
In the case of `CNc1ncc2cc(-c3cc(NC(=O)NC[C@@H](O)C(C)(C)C)c(F)cc3C)cnc2n1` [Example 19, 1-[2-fluoro-4-methyl-5-(2-methylaminopyrido[2,3-d]pyrimidin-6-yl)phenyl]-3-[(2S)-2-hydroxy-3,3-dimethyl-butyl]urea], the IC50 at human B-Raf V600E was < 150 nM.
As for `CC(=O)Nc1ncc2cc(-c3cc(NC(=O)NCCC(C)(C)C)c(F)cc3C)c(C)nc2n1` [Example 33, N-(6-(5-(3-(3,3-Dimethylbutyl)ureido)-4-fluoro-2-methylphenyl)-7-methylpyrido[2,3-d]pyrimidin-2-yl)acetamide], the IC50 on human B-Raf V600E is < 150 nM.
Same read-out and setting: next, `COCCNc1ncc2cc(-c3cc(NC(=O)NC4CC(C)(C)C4)c(F)cc3C)c(C)nc2n1` [Example 31, 1-(3,3-Dimethylcyclobutyl)-3-(2-fluoro-5-(2-((2-methoxyethyl)amino)-7-methylpyrido[2,3-d]pyrimidin-6-yl)-4-methylphenyl)urea]: < 150 nM; `CNc1ncc2cc(-c3cc(NC(=O)NC[C@H](O)C(C)(C)C)c(F)cc3C)cnc2n1` [Example 18, 1-[2-Fluoro-4-methyl-5-(2-methylaminopyrido[2,3-d]pyrimidin-6-yl)phenyl]-3-[(2R)-2-hydroxy-3,3-dimethyl-butyl]urea]: < 150 nM.
Consider `CNc1ncc2cc(-c3cc(NC(=O)NCCC(C)(C)C)c(F)cc3Br)c(C)nc2n1` [Example 32, 1-(4-Bromo-2-fluoro-5-(7-methyl-2-(methylamino)pyrido[2,3-d]pyrimidin-6-yl)phenyl)-3-(3,3-dimethylbutyl)urea], for which, at human B-Raf V600E, the IC50 was < 150 nM.
`Cc1cc(F)c(NC(=O)NCCC(C)(C)C)cc1-c1cc2cnc(NCc3cn(C)cn3)nc2nc1C` [Example 22, 1-(3,3-Dimethylbutyl)-3-(2-fluoro-4-methyl-5-(7-methyl-2-(((1-methyl-1H-imidazol-4-yl)methyl)amino)pyrido[2,3-d]pyrimidin-6-yl)phenyl)urea]: the 50% inhibitory concentration (IC50) at human B-Raf V600E is < 150 nM.
Consider `CNc1ncc2cc(-c3cc(NC(=O)NC4CC(C)(C)C4)c(F)cc3F)c(C)nc2n1` [Example 7, 1-(2,4-Difluoro-5-(7-methyl-2-(methylamino)pyrido[2,3-d]pyrimidin-6-yl)phenyl)-3-(3,3-dimethylcyclobutyl)urea], for which the IC50 at human B-Raf V600E is < 150 nM.
Same read-out and setting: the result for `CNc1ncc2cc(-c3cc(NC(=O)NC4CC(C)(C)C4)c(F)cc3C)c(C)nc2n1` [Example 6, 1-(3,3-Dimethylcyclobutyl)-3-(2-fluoro-4-methyl-5-(7-methyl-2-(methylamino)pyrido[2,3-d]pyrimidin-6-yl)phenyl)urea] reads < 150 nM; that for `Cc1cc(F)c(NC(=O)NCCC(C)(C)F)cc1-c1cc2cnc(NCCO)nc2nc1C` [Example 29, 1-(3-Fluoro-3-methylbutyl)-3-(2-fluoro-5-(2-((2-hydroxyethyl)amino)-7-methylpyrido[2,3-d]pyrimidin-6-yl)-4-methylphenyl)urea], < 150 nM.
